Laboratory results from US20240174727A1, “LONG-ACTING NATRIURETIC PEPTIDES AND USES THEREOF” (Eli Lilly and Company, priority 2022, published 2024).
Positions count from the first letter of the chain named. Numbered stars: 1 amine (or outer) side, 2 acyl side, 3 side chain; on linkers, the order of the positions; unused ones are H or OH. Bridge positions count the residues as written; N and C are the ends. Square brackets hold non-standard residues; d marks the D form. * marks the point of attachment. PEG24 = NCCOCCOCCOCCOCCOCCOCCOCCOCCOCCOCCOCCOCCOCCOCCOCCOCCOCCOCCOCCOCCOCCOCCOCCOCCC(=O)O; C20 diacid = O=C(O)CCCCCCCCCCCCCCCCCCC(=O)*; γGlu = O=C(O)[C@H](CCC(=O)[*:2])N[*:1]; CH2 = C([*:1])[*:2]; βAla = NCCC(=O)O

B1: Example 47 (peptide)
peptide: XEKEKEKGRSSCFGGKIDRIGHYSGLGCPSFRHKGPSSGAPPPS
modifications: HOOC-(CH2)18-CO-(γGlu)-EKEKEKGRSS[CFGGKIDRIGHYSGLGC]PSFRHKGPSSGAPPPS-NH2; disulfide linkage between the bracketed Cys
B2: Example 23 (peptide)
peptide: XEKEKEKGSXRRSSCFGGRIDRIGAQSGLGCPSFRXGGPSSGAPPPS
modifications: HOOC-(CH2)18-CO-(γGlu)-EKEKEKGS-4Pal-RRSS[CFGGRIDRIGAQSGLGC]PSFR-4Pal-GGPSSGAPPPS-NH2; disulfide linkage between the bracketed Cys
B3: Example 35 (peptide)
peptide: B2 peptide with R11K, A25H, X36H
modifications: HOOC-(CH2)18-CO-(γGlu)-EKEKEKGS-4Pal-KRSS[CFGGRIDRIGHQSGLGC]PSFRHGGPSSGAPPPS-NH2; disulfide linkage between the bracketed Cys
B4: Example 36 (peptide)
peptide: B2 peptide with R19K, A25H, X36H
modifications: HOOC-(CH2)18-CO-(γGlu)-EKEKEKGS-4Pal-RRSS[CFGGKIDRIGHQSGLGC]PSFRHGGPSSGAPPPS-NH2; disulfide linkage between the bracketed Cys

Columns and labels:
plasma cGMP = experiment: In vivo monkey studies, plasma cGMP ELISA; parameters: species or system male cynomolgus monkeys; conditions: for Net cGMP (nM) Change from Baseline 0.083 h / Net cGMP (nM) Change from Baseline 0.25 h / Net cGMP (nM) Change from Baseline 0.5 h / Net cGMP (nM) Change from Baseline 1 h / Net cGMP (nM) Change from Baseline 2 h / Net cGMP (nM) Change from Baseline 4 h / Net cGMP (nM) Change from Baseline 8 h / Net cGMP (nM) Change from Baseline 12 h / Net cGMP (nM) Change from Baseline 24 h / Net cGMP (nM) Change from Baseline 36 h / Net cGMP (nM) Change from Baseline 48 h / Net cGMP (nM) Change from Baseline 72 h / Net cGMP (nM) Change from Baseline 96 h / Net cGMP (nM) Change from Baseline 120 h / Net cGMP (nM) Change from Baseline 144 h / Net cGMP (nM) Change from Baseline 168 h: dose 100 nmol/kg, monkey plasma; for Net cGMP (nM) Change from Baseline 0.083 h: 0.083 h postdose; for Net cGMP (nM) Change from Baseline 0.25 h: 0.25 h postdose; for Net cGMP (nM) Change from Baseline 0.5 h: 0.5 h postdose; for Net cGMP (nM) Change from Baseline 1 h: 1 h postdose; for Net cGMP (nM) Change from Baseline 2 h: 2 h postdose; for Net cGMP (nM) Change from Baseline 4 h: 4 h postdose; for Net cGMP (nM) Change from Baseline 8 h: 8 h postdose; for Net cGMP (nM) Change from Baseline 12 h: 12 h postdose; for Net cGMP (nM) Change from Baseline 24 h: 24 h postdose; for Net cGMP (nM) Change from Baseline 36 h: 36 h postdose; for Net cGMP (nM) Change from Baseline 48 h: 48 h postdose; for Net cGMP (nM) Change from Baseline 72 h: 72 h postdose; for Net cGMP (nM) Change from Baseline 96 h: 96 h postdose; for Net cGMP (nM) Change from Baseline 120 h: 120 h postdose; for Net cGMP (nM) Change from Baseline 144 h: 144 h postdose; for Net cGMP (nM) Change from Baseline 168 h: 168 h postdose; for net cGMP levels (result in words): monkeys, single SC dose, plasma
Experimental: In vivo monkey studies were conducted as described in detail below. Young adult-to-adult male cynomolgus monkeys were given a single dose subcutaneously (SC). Blood was collected predose and at various pre-determined timepoints throughout the study period. Aliquot of cynomolgus monkey plasma was received for cyclic cGMP (cGMP) measurement and stored at −80° C. prior to use.
Control plasma was made for determining the recovery rate of spike-in cGMP using Enzo cGMP complete ELISA kit (Enzo Life Sciences, Inc, Farmingdale, NY, cat no. ADI-901-164). Briefly, blood from male Sprague Dawley rats (Inotiv, Indianapolis, IN), about 7 months old, was collected in a BD Vacutainer EDTA tube (Becton Dickinson, Franklin Lakes, NJ, cat no. BD-367856) with volume of approximate 4 mL through retro orbital bleeding. Plasma was prepared by spinning the tube in an Eppendorf Refrigerated Centrifuge 5810R (Brinkman Instruments, Inc, Westbury, NY) at 3500 rpm (3000×g) for 10 min at 4° C. Plasma was collected as Positive Control plasma. Cyclic GMP (cGMP standard from Enzo cGMP complete ELISA kit) was added to the positive control plasma at a final concentration of additional 40 nM. Positive Control and Spiked-in Control plasma were aliquoted and stored at −80° C.
The cGMP content was measured using the Enzo cGMP complete ELISA kit following the manufacturer's directions with modifications as described below. The cGMP standards provided in the kit were diluted 1:3 ranging from 50 nM to 0.023 nM in 1× assay buffer that was diluted in water from 2× assay buffer provided in the kit. The cGMP standards ([…]) were transferred to a 96-well polypropylene plate (Thermo Scientific, cat no. 442587).
Plasma samples were thawed from −80° C. and diluted 1:20 in 1× assay buffer in the above plate with a final volume of 150 μL. Assay buffer was added (150 μL) for both a non-specific binding control (in the absence of cGMP antibody) and a maximum binding control (in the absence of competing cGMP) in duplicate wells. Positive Control and Spiked-in Control plasma were diluted 1:20 in 1× assay buffer with a final volume of 150 μL in duplicate wells of the above plate. All diluted plasma was mixed by pipetting up and down several times.
Acetylation reagent mix was prepared by adding 1-part of acetic anhydride into 2-parts of triethylamine provided in the kit and mixing well using Vortex (Scientific Industries, Inc, Bohemia, NY). All controls, standards, and plasma samples were acetylated by adding 15 μL of acetylation reagent mix into the plate, one column at a time, and shaking for 1 min on a Titer Plate Shaker (Lab-Line Instrument, Inc., Melrose Park, IL) at room temperature. The plate was shaken for an additional 1 min following the acetylation of the last column to ensure the reaction was completed.
Acetylated controls, standard and plasma samples were transferred (100 μL) to an ELISA plate (n=1). Then 50 μL of cGMP conjugate were added to each well followed by the addition of 50 μL cGMP antibody to each well except for two non-specific binding wells, in which 50 μL of 1× assay buffer were added. The plate was then sealed and shaken for 2 h at room temperature on the plate shaker. Following this incubation, the plate was washed five times using 200 μL of 1× wash buffer diluted in water from 5× wash buffer provided in the kit. Then, 200 μL of para-Nitrophenylphosphate (pNpp) were added to each well. The plate was sealed with a new plate sealer and shaken in dark for 1 h at room temperature on the plate shaker. Finally, 50 μL of stop solution were added to each well to stop the enzyme reaction. The plate was then read at 405 nm using SpectraMax Plus (Molecular Devices, San Jose, CA).
The mean absorbance at 405 nm (O.D. 405 nm) for the non-specific binding controls was subtracted from the O.D. 405 nm of all samples. The subtracted O.D. 405 nm of all samples were then normalized with the mean subtracted O.D. 405 nm of the maximum binding controls as B/B0%. […]

human NPRA = molecular target: T1, human NPRA (human, UniProt P16066 33-1061); experiment: cell-based or functional assay
T1 sequence (looked up): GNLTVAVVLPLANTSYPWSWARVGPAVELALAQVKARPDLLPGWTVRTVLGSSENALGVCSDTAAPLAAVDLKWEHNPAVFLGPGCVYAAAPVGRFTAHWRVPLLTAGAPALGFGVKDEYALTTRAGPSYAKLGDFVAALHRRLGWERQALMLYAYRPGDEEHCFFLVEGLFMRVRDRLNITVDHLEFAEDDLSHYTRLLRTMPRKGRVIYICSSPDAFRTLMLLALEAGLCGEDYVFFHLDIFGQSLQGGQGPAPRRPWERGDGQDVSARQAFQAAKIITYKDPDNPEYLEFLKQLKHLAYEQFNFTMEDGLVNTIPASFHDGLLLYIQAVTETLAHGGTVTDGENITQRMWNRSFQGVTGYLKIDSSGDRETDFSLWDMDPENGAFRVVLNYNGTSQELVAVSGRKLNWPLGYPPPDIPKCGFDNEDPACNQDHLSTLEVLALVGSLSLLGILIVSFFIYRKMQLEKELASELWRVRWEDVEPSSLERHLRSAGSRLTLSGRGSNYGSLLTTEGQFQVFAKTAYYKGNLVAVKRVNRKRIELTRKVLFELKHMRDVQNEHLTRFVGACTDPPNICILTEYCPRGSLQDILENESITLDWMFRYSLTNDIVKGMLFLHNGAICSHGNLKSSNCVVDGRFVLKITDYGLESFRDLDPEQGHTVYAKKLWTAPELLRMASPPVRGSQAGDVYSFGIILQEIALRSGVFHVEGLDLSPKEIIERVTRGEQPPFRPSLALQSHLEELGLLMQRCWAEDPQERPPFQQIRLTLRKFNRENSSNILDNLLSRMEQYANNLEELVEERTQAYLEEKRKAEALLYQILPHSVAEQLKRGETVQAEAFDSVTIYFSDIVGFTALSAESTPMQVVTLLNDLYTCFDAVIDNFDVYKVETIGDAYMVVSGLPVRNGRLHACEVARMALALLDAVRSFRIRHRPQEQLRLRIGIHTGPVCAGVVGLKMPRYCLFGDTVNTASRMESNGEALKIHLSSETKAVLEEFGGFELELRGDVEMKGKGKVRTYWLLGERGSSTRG

| Molecule | Net cGMP (nM) Change from Baseline 0.083 h (plasma cGMP) | Net cGMP (nM) Change from Baseline 0.25 h (plasma cGMP) | Net cGMP (nM) Change from Baseline 0.5 h (plasma cGMP) | Net cGMP (nM) Change from Baseline 1 h (plasma cGMP) | Net cGMP (nM) Change from Baseline 2 h (plasma cGMP) | Net cGMP (nM) Change from Baseline 4 h (plasma cGMP) | Net cGMP (nM) Change from Baseline 8 h (plasma cGMP) | Net cGMP (nM) Change from Baseline 12 h (plasma cGMP) | Net cGMP (nM) Change from Baseline 24 h (plasma cGMP) | Net cGMP (nM) Change from Baseline 36 h (plasma cGMP) | Net cGMP (nM) Change from Baseline 48 h (plasma cGMP) | Net cGMP (nM) Change from Baseline 72 h (plasma cGMP) | Net cGMP (nM) Change from Baseline 96 h (plasma cGMP) | Net cGMP (nM) Change from Baseline 120 h (plasma cGMP) | Net cGMP (nM) Change from Baseline 144 h (plasma cGMP) | Net cGMP (nM) Change from Baseline 168 h (plasma cGMP) | net cGMP levels (result in words) (plasma cGMP) | cGMP Assay (EC50, pM) w/Casein (human NPRA) |
| --- | --- | --- | --- | --- | --- | --- | --- | --- | --- | --- | --- | --- | --- | --- | --- | --- | --- | --- |
| {C20 diacid-γGlu}-EKEKEKG[PEG24]EK[βAla]RSSCFGKRIDRIGHYSGLGCPSFRHGSPSSGAPPPS-NH2 (linker 15-31 via CH2) [Example 106] | 3.54 nM | 19.8 nM | 25.25 nM | 24.83 nM | 26.38 nM | 26.16 nM | 14.03 nM | 17.64 nM | 9.38 nM | 12.13 nM | 8.71 nM | 5.67 nM | 6.4 nM | 7.88 nM | 7.54 nM | 7.66 nM | increased net cGMP levels | – |
| (BFAEN2-βAla)-EKEKEKG-PEG24-EK-βAla-RSS[CFGKRIDRIGHQSGLGC]PSFRHGSPSSGAPPPS-NH2 (EKXRSSCFGKRIDRIGHQSGLGCPSFRHGSPSSGAPPPS; BFAEN2-βAla, PEG24, C-terminal amide; MOD_RES 1 N-terminal modified with (BFAEN2-beta-Ala)-EKEKEKG-PEG24-; wherein BFAEN2 is Bifurcated Fatty Acid Enantiomer 2; SITE 3 X at position 3 is beta-Alanine; MOD_RES 39 Amidation; DISULFID 7..23 Intrachain thioacetal bond) [Example 144] | 5.9 nM | 18.26 nM | 27.08 nM | 36.51 nM | 35.21 nM | 27.1 nM | 20.15 nM | 13.2 nM | 10.23 nM | 9.57 nM | 7.11 nM | 5.22 nM | 6.83 nM | 3.5 nM | 4.48 nM | 8.71 nM | increased net cGMP levels | – |
| B1 | – | – | – | – | – | – | – | – | – | – | – | – | – | – | – | – | – | 299 pM |
| B2 | – | – | – | – | – | – | – | – | – | – | – | – | – | – | – | – | – | 3490 pM |
| B3 | – | – | – | – | – | – | – | – | – | – | – | – | – | – | – | – | – | 118 pM |
| B4 | – | – | – | – | – | – | – | – | – | – | – | – | – | – | – | – | – | 118 pM |
